From patent US5380834A, “Immuno-suppressive agent” (Ishihara Sangyo Kaisha Ltd., priority 1992, dated 1995) come the findings set out here.

Test [1] deals with murine mixed lymphocyte reaction (spleen cells of BALB/c and C57BL/6 mice). Briefly: Effects on the murine mixed lymphocyte reaction (3H-TdR uptake). It is filed as cell-based. The settings on record: Mus musculus, BALB/c + C57BL/6 spleen cells, 48 hours, read-out: IC50 value, b (murine mixed lymphocyte reaction). As for the experimental part: Using spleen cells of BALB/c and C57BL/6 mice, the effect of the compound of the formula (I) on the murine mixed lymphocyte reaction in both sides, was studied. Namely, spleen cells of both types of mice were mixed in an equal amount of 5×10^5 cells each, and the mixed cells were cultured together with the compound of the formula (I) for 48 hours on a microplate with 96 wells by a 10% FCS-RPMI solution (in an incubator, 5% CO2, at 37° C.). Then, 0.5 μCi of ^3 H-TdR was added thereto, and the mixture was further cultured for from 16 to 18 hours. Then, cells were collected by a cell harvester, and the radioactivity (dpm) of ^3 H-TdR uptaken into the cells, was measured. Such measured amounts of ^3 H-TdR uptaken into the cells were used as indices for the mixed lymphocyte reaction, and the radioactivity at each concentration (from 0.001 to 1,000 μg/ml) of the compound of the formula (I) was compared with the non-treated control value, to calculate the Ic50 value.
For the basic procedure for this test, reference was made to Selected methods in cellular immunology, p. 147-149 (translated by Katsuyuki Imai et al., published by Rikogakusha, (1982)).

Test [2] has as its system IgGl antibody production from murine spleen B cells. As to the kind of experiment: Effects on the IgGl antibody production from murine spleen cells (LPS + IL4). The format is cell-based, BALB/c mouse. The conditions noted are these: Mus musculus, B-cell, 168 h; spleen B cells, LPS 10 μg/ml, IL4 100 U/ml, 7 days, enzyme-immunoassay; read-out: IC50 value, IgGl antibody production. As to the method:
(§1) Using murine spleen B cells, the effects of the compound of the formula (I) on the IgGl, IgM and IgE antibody production induced by the stimulation by LPS (lipopolysaccharide; Product No. 520.02051, manufactured by Wako Junyaku) and IL4 (interleukin 4), were studied. Namely, spleen cells of a BALB/c mouse were treated with a murine anti-Thy-1 antibody (obtained from Chiba University) and a rabbit complement (Product No. 3051, manufactured by cedarlane) to remove T cells, and 3×10^5 spleen B cells were cultured for 7 days together with 10 μg/ml of LPS, 100 U/ml of mouse-recombinant IL4 (Product No. MIL-4C, manufactured by Genzyme) and each concentration (from […]) of the compound of the formula (I) on a microplate with 96 wells by a 10% FCS-RPMI solution (in an incubator, 5% CO2, at 37° C.).
(§2) For the basic procedure of this test, reference was made to The Journal of Immunology, Vol. 136, p. 4538, (1986).
(§3) The amount of each antibody in the cell culture supernatant hereby obtained, was measured by the following enzyme-immunoassay. Firstly, on a microplate with 96 wells, 1 μg/ml of a rabbit anti-mouse IgGl antibody (Product No. 36243, manufactured by Cappel), 1 μg/ml of a goat anti-mouse IgM antibody (Product No. 0611-0201, manufactured by Cappel) or 10 μg/ml of a rat anti-mouse IgE monoclonal antibody (Product No. LO-ME-2, manufactured by Experimental Immunology) was coated (50 μl/well, at room temperature for 60 minutes), and then a nonspecific bond was blocked by a 0.1% bovine serum albumin-containing 10 mM sodium phosphate buffer (pH 7.2) (at room temperature for 60 minutes). Then, the above-mentioned cell culture supernatant or its diluted solution was added in an amount of 50 μl/well and reacted at room temperature for 60 minutes. Further, an alkaline phosphatase-labeled rabbit anti-mouse IgGl antibody (Product No. 61-0122, manufactured by Zymet) diluted 1,000 times, an alkaline phosphatase-labeled rabbit anti-mouse IgM antibody (Product No. 61-6822, manufactured by Zymet) diluted 2,000 times, or an alkaline phosphatase-labeled goat anti-mouse IgE antibody (Product No. PA-284, manufactured by Binding Site) diluted 500 times was added in an amount of 50 μl/well and reacted at room temperature for 60 minutes. 100 μl/well of a 10% diethanol amine buffer solution (pH 9.8) containing p-nitrophenyl phosphate as an enzyme substrate, was reacted, and the absorbance at 405 nm was measured. The amount of each antibody was calculated from the calibration curve of each standard antibody, and the IC50 value of the compound of the formula (I) on the antibody production was calculated using as the control value a value obtained in the absence of the compound of the formula (I).

Test [3] concerns murine thymocytes. Briefly: Effects on the mitogenic response by murine thymocytes (Con A stimulation, 3H-TdR uptake). It is filed as cell-based, BALB/c murine. The settings on record: Mus musculus, Thymocyte; BALB/c thymocytes, Con A 5 μg/ml, 48 hours, 3H-TdR uptake; read-out: IC50 value, a (mitogenic response of murine thymocytes). As to the method: Using BALB/c murine thymocytes, the effect of the compound of the formula (I) on the mitogenic response of lymphocytes to the stimulation by concanavalin A (hereinafter referred to simply as Con A, Product No. L-1000, manufactured by Vector Laboratories) was studied. Namely, 4×10^5 murine thymocytes were cultured for 48 hours on a microplate with 96 wells in a RPMI1640 solution containing 10% of a fetal bovine serum (hereinafter referred to simply as a 10% FCS-RPMI solution) together with Con A (5 μg/ml) and the compound of the formula (I) (in an incubator, 5% CO2, at 37° C.). Then, 0.5 μCi of ^3 H-thymidine (hereinafter referred to simply as ^3 H-TdR) was added thereto, and the mixture was further cultured for 4 hours. Then, cells were collected by a cell harvester, and the radioactivity (dpm) of ^3 H-TdR uptaken into cells was measured. Such measured amounts of ^3 H-TdR uptaken into the cells were used as indices of the mitogenic response of the murine thymocytes, and the radioactivity at each concentration (from 0.001 to 1,000 μg/ml) of the compound of the formula (I) was compared with the control value treated solely by Con A, to calculate IC50 value. In these Tables 12 and 13, the results of murine thymocytes are shown by (a).
For the basic procedure of this test, reference was made to Selected methods in cellular immunology, p. 144-146 (translated by Katsuyuki Imai et al., published by Rikogakusha, (1982)).

Test [4] relates to murine bone mallow cells. Briefly: Effects on the murine bone mallow cells (proliferation, 3H-TdR uptake). The format is cell-based, BALB/c mouse. The settings on record: Mus musculus, bone marrow cells; 20% L929 culture supernatant, 48 hours, 3H-TdR uptake; Tables 12-15; read-out: IC50 value, c (murine bone mallow cells). As for the experimental part: Bone mallow cells were removed from the femur of a BALB/c mouse and suspended in a 10% FCS-RPMI solution. The cell suspension was put into a plastic Petri dish having a diameter of 10 cm and left to stand still (in an incubator, 5% CO2, at 37° C.). Two hours later, only floating cells were recovered, and adhesion cells were removed. 1×10^5 floating cells were cultured for 48 hours together with a 20% culture supernatant of L929 fibroblastoma and the compound of the formula (I) on a microplate with 96 wells by a 10% FCS-RPMI solution (in an incubator, 5% CO2, at 37° C.). Then, 0.5 μCi of ^3 H-TdR was added thereto, and the mixture was further cultured for 4 hours. Then, cells were collected by a cell harvester, and the radioactivity (dpm) of ^3 H-TdR uptaken into the cells, was measured. Such measured amounts of ^3 H-TdR uptaken into the cells were used as indices for the proliferation of bone mallow cells, and the radioactivity at each concentration (from 0.001 to 1,000 μg/ml) of the compound of the formula (I) was compared with the control value where the L929 culture supernatant was added alone, to calculate the IC50 value. In these Tables 12 and 13, the results of the bone mallow cells are shown by (c).
For the basic procedure of this test, reference was made to Seikagakujikken Koza compiled by Japan Biochemistry Association, Vol. 5, p. 266-270 (published by Tokyo Kagaku Dojin in 1986).

For test [5], the system named is IgE antibody production from murine spleen B cells. As to the kind of experiment: Effects on the IgE antibody production from murine spleen cells (LPS + IL4). The settings on record: Mus musculus, B-cell, 168 h; spleen B cells, LPS 10 μg/ml, IL4 100 U/ml, 7 days, enzyme-immunoassay; read-out: IC50 value, IgE antibody production. The format is cell-based, BALB/c mouse. As for the experimental part:
as §1, §2, §3

Test [6] relates to IgM antibody production from murine spleen B cells. As to the kind of experiment: Effects on the IgM antibody production from murine spleen cells (LPS + IL4). The format is cell-based, BALB/c mouse. The settings on record: Mus musculus, B-cell, 168 h; spleen B cells, LPS 10 μg/ml, IL4 100 U/ml, 7 days, enzyme-immunoassay; read-out: IC50 value, IgM antibody production. As for the experimental part:
as §1, §2, §3

≈ marks a conversion by molar mass, not a printed value. Where only a bound is given, the exact number is not on record here.

What is called IC50 is the midpoint of a concentration-inhibition curve. In the case of `CC(=O)Oc1ccccc1C(=O)O[C@H]1C=C[C@H]2CO[C@@H]1O2` [Compound 11], the IC50 in test [1] is 170 µg/mL; in test [2], 16 µg/mL; in test [3], 110 µg/mL (≈ 379 µM); in test [4], 210 µg/mL (≈ 723 µM); in test [5], 32 µg/mL; in test [6] it was 28 µg/mL.

For the molecule `CCCCCCCCCC(=O)O[C@H]1C=C[C@H]2CO[C@@H]1O2` [Compound 12, 1,6-anhydro-2-O-decanoyl-3,4-dideoxy-β-D-threo-hex-3-enopyranose], the IC50 amounted to 560 µg/mL in test [1]; 24 µg/mL in test [2]; 110 µg/mL (≈ 390 µM) in test [3]; 560 µg/mL (≈ 1980 µM) in test [4]; 28 µg/mL in test [5]; 0.11 µg/mL in test [6].

Take `O=C(CCCCCBr)O[C@H]1C=C[C@H]2CO[C@@H]1O2` [Compound 13]: the IC50 in test [1] is 190 µg/mL; in test [2] it was under 0.001 µg/mL; in test [3] it was 33 µg/mL (≈ 108 µM); in test [4], 330 µg/mL (≈ 1080 µM); in test [5] it was 0.32 µg/mL; in test [6], under 0.001 µg/mL.

In the case of `O=C(O[C@H]1C=C[C@H]2CO[C@@H]1O2)c1cccs1` [Compound 14], the IC50 came to 13 µg/mL in test [1]; 10 µg/mL in test [2]; 42 µg/mL (≈ 176 µM) in test [3]; 500 µg/mL (≈ 2100 µM) in test [4]; 3.7 µg/mL in test [5]; 0.89 µg/mL in test [6].

In the case of `O=C(O[C@H]1C=C[C@H]2CO[C@@H]1O2)c1cccnc1` [Compound 15], the IC50 in test [1] was 480 µg/mL; in test [2] it was 220 µg/mL; in test [3] it was 130 µg/mL (≈ 557 µM); in test [4], 310 µg/mL (≈ 1330 µM); in test [5], 320 µg/mL; in test [6] it was 78 µg/mL.

As for `O=C(O[C@H]1C=C[C@H]2CO[C@@H]1O2)c1ccc(Cl)cc1` [Compound 16], the IC50 in test [1] came out at 190 µg/mL; in test [2], 41 µg/mL; in test [3], 91 µg/mL (≈ 341 µM); in test [4], 170 µg/mL (≈ 637 µM); in test [5], 50 µg/mL; in test [6] it was 20 µg/mL.

In the case of `CCCCCCCCCCCCCCCCCCCC(=O)O[C@H]1C=C[C@H]2CO[C@@H]1O2` [Compound 20], the half-inhibitory concentration (IC50) in test [1] came to 240 µg/mL; in test [2], 5.2 µg/mL; in test [3] it was 150 µg/mL (≈ 355 µM); in test [4] it was 400 µg/mL (≈ 946 µM); in test [5] it was 3.2 µg/mL; in test [6], 500 µg/mL.

Turning to `O=C(Oc1ccccc1)O[C@H]1C=C[C@H]2CO[C@@H]1O2` [Compound 22], the IC50 in test [1] was 130 µg/mL; in test [2], 670 µg/mL; in test [3], 300 µg/mL (≈ 1210 µM); in test [4] it was over 1000 µg/mL; in test [5], 4 µg/mL; in test [6], 230 µg/mL.

In the case of `O=C(Nc1ccccc1)O[C@H]1C=C[C@H]2CO[C@@H]1O2` [Compound 23, 1,6-anhydro-3,4-dideoxy-2-O-phenylcarbamoyl-β-D-threo-hex-3-enopyranose], the IC50 is 170 µg/mL in test [1]; 72 µg/mL in test [2]; 95 µg/mL (≈ 384 µM) in test [3]; 49 µg/mL (≈ 198 µM) in test [4]; 43 µg/mL in test [5]; 69 µg/mL in test [6].

For the molecule `CNC(=S)O[C@H]1C=C[C@H]2CO[C@@H]1O2` [Compound 24, 1,6-anhydro-3,4-dideoxy-2-O-methylthiocarbamoyl-β-D-threo-hex-3-enopyranose], the IC50 was 100 µg/mL in test [1]; 17 µg/mL in test [2]; 170 µg/mL (≈ 845 µM) in test [3]; 620 µg/mL (≈ 3080 µM) in test [4]; 0.22 µg/mL in test [5]; 10 µg/mL in test [6].

Consider `CC(C)(C)NC(=O)O[C@H]1C=C[C@H]2CO[C@@H]1O2` [Compound 25], for which the half-maximal inhibitory concentration (IC50) in test [1] turned out to be 430 µg/mL; in test [2] it was 0.0015 µg/mL; in test [3], 0.32 µg/mL (≈ 1.41 µM); in test [4] it was 340 µg/mL (≈ 1500 µM); in test [5], 0.0034 µg/mL; in test [6], 78 µg/mL.

`S=C(Oc1ccccc1)O[C@H]1C=C[C@H]2CO[C@@H]1O2` [Compound 26]: the half-maximal inhibitory concentration (IC50) came to 20 µg/mL in test [1]; 23 µg/mL in test [2]; 44 µg/mL (≈ 166 µM) in test [3]; 200 µg/mL (≈ 757 µM) in test [4]; 4.5 µg/mL in test [5]; 110 µg/mL in test [6].

Take `C=C[C@]1(O)C=C[C@H]2CO[C@@H]1O2` [Compound 27, 1,6-anhydro-3,4-dideoxy-2-C-vinyl-β-D-threo-hex-3-enopyranose]: the IC50 stood at 180 µg/mL in test [1]; 34 µg/mL in test [2]; 49 µg/mL (≈ 318 µM) in test [3]; 44 µg/mL (≈ 285 µM) in test [4]; 24 µg/mL in test [5]; 36 µg/mL in test [6].
